Test results published in the NIST ThermoML archive (doi:10.1021/je060490w).
Several values for one entry are separate records, joined by “and”; a condition that tells them apart may be missing. Equal entries are not always repeated.

Key:
[1] = for surface tension liquid-gas: Pendant drop shape; for mass density: 101.33 kPa, Liquid
[2] = xn = mol fraction of the nth substance listed; settings: Pendant drop shape

CCOC(C)OCC [1,1-diethoxyethane]
[1]
Settings	mass density [kg/m3]	surface tension liquid-gas [mN/m]
298.15 K	821.96	20.88
308.15 K	811.48	19.89
313.15 K	806.18	19.42

CCOC(C)OCC [1,1-diethoxyethane] + Cc1cc(C)cc(C)c1
[2]
Settings	surface tension liquid-gas [mN/m]
298.15 K, x1 = 0.0491	27.45
298.15 K, x1 = 0.1013	26.91
298.15 K, x1 = 0.1538	26.36
298.15 K, x1 = 0.1996	25.83
298.15 K, x1 = 0.2501	25.34
298.15 K, x1 = 0.3009	24.81
298.15 K, x1 = 0.3501	24.37
298.15 K, x1 = 0.4067	23.83
298.15 K, x1 = 0.4506	23.45
298.15 K, x1 = 0.4997	23.04
298.15 K, x1 = 0.5523	22.62
298.15 K, x1 = 0.601	22.26
298.15 K, x1 = 0.6508	21.92
298.15 K, x1 = 0.7006	21.64
298.15 K, x1 = 0.7507	21.43
298.15 K, x1 = 0.8014	21.2
298.15 K, x1 = 0.851	21.09
298.15 K, x1 = 0.8994	21.02
298.15 K, x1 = 0.9487	20.95
298.15 K, x1 = 1	20.88
308.15 K, x1 = 0.0488	26.55
308.15 K, x1 = 0.1009	25.97
308.15 K, x1 = 0.1495	25.4
308.15 K, x1 = 0.1991	24.86
308.15 K, x1 = 0.2498	24.32
308.15 K, x1 = 0.3014	23.84
308.15 K, x1 = 0.3503	23.35
308.15 K, x1 = 0.4004	22.89
308.15 K, x1 = 0.4508	22.44
308.15 K, x1 = 0.5011	22.03
308.15 K, x1 = 0.5503	21.61
308.15 K, x1 = 0.5979	21.25
308.15 K, x1 = 0.6511	20.9
308.15 K, x1 = 0.6997	20.62
308.15 K, x1 = 0.7503	20.33
308.15 K, x1 = 0.7977	20.15
308.15 K, x1 = 0.8462	20.04
308.15 K, x1 = 0.8993	19.95
308.15 K, x1 = 0.9418	19.93
308.15 K, x1 = 1	19.89
313.15 K, x1 = 0.0487	26.09
313.15 K, x1 = 0.0991	25.49
313.15 K, x1 = 0.1507	24.91
313.15 K, x1 = 0.1999	24.37
313.15 K, x1 = 0.2468	23.86
313.15 K, x1 = 0.3001	23.34
313.15 K, x1 = 0.3501	22.83
313.15 K, x1 = 0.4008	22.38
313.15 K, x1 = 0.4502	21.95
313.15 K, x1 = 0.5	21.54
313.15 K, x1 = 0.5495	21.12
313.15 K, x1 = 0.6005	20.73
313.15 K, x1 = 0.6506	20.4
313.15 K, x1 = 0.7005	20.11
313.15 K, x1 = 0.7514	19.8
313.15 K, x1 = 0.7996	19.63
313.15 K, x1 = 0.8494	19.52
313.15 K, x1 = 0.9003	19.48
313.15 K, x1 = 0.9498	19.44
313.15 K, x1 = 1	19.42

CCOC(C)OCC [1,1-diethoxyethane] + Cc1ccc(C)c(C)c1
[2]
Settings	surface tension liquid-gas [mN/m]
298.15 K, x1 = 0.05	28.51
298.15 K, x1 = 0.1	27.76
298.15 K, x1 = 0.151	26.97
298.15 K, x1 = 0.2005	26.29
298.15 K, x1 = 0.2511	25.71
298.15 K, x1 = 0.3005	25.14
298.15 K, x1 = 0.3526	24.6
298.15 K, x1 = 0.401	24.16
298.15 K, x1 = 0.4538	23.73
298.15 K, x1 = 0.5034	23.35
298.15 K, x1 = 0.5513	23.01
298.15 K, x1 = 0.5998	22.7
298.15 K, x1 = 0.6519	22.41
298.15 K, x1 = 0.7012	22.08
298.15 K, x1 = 0.7499	21.85
298.15 K, x1 = 0.8003	21.58
298.15 K, x1 = 0.8491	21.42
298.15 K, x1 = 0.9	21.21
298.15 K, x1 = 0.9399	21.09
298.15 K, x1 = 1	20.88
308.15 K, x1 = 0.0488	27.35
308.15 K, x1 = 0.0993	26.53
308.15 K, x1 = 0.1486	25.79
308.15 K, x1 = 0.2003	25.09
308.15 K, x1 = 0.2497	24.51
308.15 K, x1 = 0.3001	23.95
308.15 K, x1 = 0.3499	23.47
308.15 K, x1 = 0.4004	23.02
308.15 K, x1 = 0.4534	22.6
308.15 K, x1 = 0.5016	22.23
308.15 K, x1 = 0.55	21.9
308.15 K, x1 = 0.6017	21.54
308.15 K, x1 = 0.6514	21.24
308.15 K, x1 = 0.7003	20.96
308.15 K, x1 = 0.7498	20.72
308.15 K, x1 = 0.8007	20.46
308.15 K, x1 = 0.8502	20.28
308.15 K, x1 = 0.8989	20.09
308.15 K, x1 = 0.9488	19.95
308.15 K, x1 = 1	19.89
313.15 K, x1 = 0.0498	26.73
313.15 K, x1 = 0.0992	25.91
313.15 K, x1 = 0.1501	25.09
313.15 K, x1 = 0.2003	24.46
313.15 K, x1 = 0.2496	23.86
313.15 K, x1 = 0.3027	23.34
313.15 K, x1 = 0.3505	22.89
313.15 K, x1 = 0.4	22.43
313.15 K, x1 = 0.4501	22.05
313.15 K, x1 = 0.499	21.67
313.15 K, x1 = 0.5463	21.37
313.15 K, x1 = 0.6011	20.95
313.15 K, x1 = 0.6503	20.68
313.15 K, x1 = 0.7002	20.4
313.15 K, x1 = 0.7491	20.14
313.15 K, x1 = 0.7998	19.91
313.15 K, x1 = 0.8507	19.72
313.15 K, x1 = 0.899	19.53
313.15 K, x1 = 0.9497	19.45
313.15 K, x1 = 1	19.42

Cc1ccc(C)c(C)c1 [1,2,4-trimethylbenzene]
[1]
Settings	mass density [kg/m3]	surface tension liquid-gas
298.15 K	871.71	29.3 mN/m
308.15 K	863.68	28.24 mN/m
313.15 K	859.58	27.67 mN/m and 27.71 mN/m

Cc1ccc(C)c(C)c1 [1,2,4-trimethylbenzene] + CCOC(C)OCC
[2], x2 = 0
Settings	surface tension liquid-gas [mN/m]
298.15 K	29.3
308.15 K	28.24
313.15 K	27.71

Cc1ccc(C)c(C)c1 [1,2,4-trimethylbenzene] + COC(C)(C)OC
[2], x2 = 0
Settings	surface tension liquid-gas [mN/m]
298.15 K	29.3
308.15 K	28.24
313.15 K	27.71
